Source: patent US20060286159A1 (priority 2003, published 2006)
“Also recorded” adds a separate entry of the source.

Assays:
Type in all cases: in vivo, human
[1] = tested on: chronic non-insertional Achilles tendinopathy; assay: Non-insertional Achilles tendinopathy clinical trial (randomized, double blind, placebo controlled)
Text: (§1) Three clinical trials were approved by an institutional Ethics Committee. Patients with clinical diagnoses of the specified tendinopathies were recruited through newspaper advertisements and private consulting rooms. All subjects were over 18 years of age, and gave written informed consent.
(§2) In the non-insertional Achilles tendinopathy trial, there were 65 patients (84 Achilles tendons) with 40 men and 25 women enrolled in the study, having a median age of 49 years (range 24 to 77 years), and a median duration of symptoms prior to the study of 16 months (range 4 to 147 months). In the extensor tendinopathy trial, there were 86 patients (95 elbows), with 42 males and 44 females, having a median age of 46 years (range 30 to 74 years), and a median duration of symptoms of 17 months (range 3 to 232 months). In the supraspinatus tendinopathy trial, there were 53 patients (57 shoulders), with 24 males and 29 females, having a median age of 52 years (range 25 to 79 years), and a median symptom duration of 14 months (range 4 to 96).
(§3) Diagnostic criteria for patient inclusion in the respective trials were as follows. The diagnosis of chronic non-insertional Achilles tendinopathy was based on an insidious onset of Achilles tendon pain, a tender nodule localized to the region 2 to 6 centimeters from the calcaneal insertion, and an ultrasound examination that excluded a frank tendon tear. The diagnosis of chronic extensor tendinopathy at the elbow was based on an insidious onset of lateral elbow pain, tenderness localized to the lateral humeral epicondyle and extensor carpi radialis brevis tendon, pain in the lateral elbow with resisted wrist or third metacarpophalangeal joint extension, and an ultrasound examination that excluded a frank tendon tear. The diagnosis of chronic supraspinatus tendinopathy was based on positive impingement signs (internal or external rotation), pain with supraspinatus muscle testing, and magnetic resonance imaging (MRI) high signal intensity without frank tear in the supraspinatus tendon.
(§4) Patients were excluded if they had tendinopathy of less than three months duration, current pregnancy, previous surgery on the affected limb or tendon, dislocation of the ipsilateral limb joints, distal neurological signs, a local corticosteroid injection in the previous three months, the current use of nitrate medications or phosphodiesterase inhibitors such as Viagra™, a family history of arthritis other than osteoarthritis, or extra-articular features of seronegative arthropathies. Generally, every participating patient could be considered to have persistent active tendinopathy.
(§5) The patients were randomly allocated into two groups. […] The active and placebo patches were indistinguishable from one another. The randomization was controlled by the senior pharmacist at the institution who also supervised the packaging of transdermal patches and their distribution to patients. Both the patients and the clinical examiner were blinded as to which group the patients were in, i.e. double-blind.
(§6) The transdermal patches were intact when distributed, and patients were required to cut the patches into quarters prior to application. Patients were also given a supply of paracetamol tablets (500 mg), and were instructed to use them exclusively for any headaches experienced.
(§7) Patients were instructed in the application of the patches at their initial visit. They were informed that the dosing regimen was one quarter of a transdermal patch to be applied daily to the skin area closest to the affected tendon. The patches were to be left in situ for 24 hours and then replaced with a new quarter patch. […] Patients were instructed to rotate the patch application site around this point with each new patch application for the six-month study duration in an effort to minimize application site irritation.
(§8) At the initial clinical assessment, all patients were instructed in the performance of a tendon specific rehabilitation program. […]

[2] = tested on: chronic supraspinatus tendinopathy
Text: as §1, §2, §3, §4, §5, §6, §7, §8

[3] = tested on: chronic overuse tendinopathies; assay: The three tendinopathy clinical trials taken together
Text: as §1, §5, §7
A single examiner assessed all patients and recorded information on clinical outcome measures. All clinical assessments were repeated at week 0, 2, 6, 12, and 24 with an identical format. Records of headaches, paracetamol use, and compliance with patch application and the tendon rehabilitation program were also made at these scheduled visits. Patients were excluded from the trials for non-compliance at any two visits.
Outcome measures were analyzed with Sigmastat 2.0 statistical software (Jandel Scientific, California, U.S.A) using Mann-Whitney rank sum tests to compare differences between groups, and using the Wilcoxon sign rank test to compare differences within the groups. The level of significance was defined at p=0.05. A Chi square analysis of patient reported symptom outcomes at week 24 was performed. Effect size estimates were calculated by dividing the mean z-score, calculated from all outcome measures at week 24, by the square root of the sample size to given a general measure of the overall effect of the patch on pain, tendon force and function.

[4] = week 24, more patients asymptomatic with activities of daily living than placebo, 1.25 mg/24 h patch + rehabilitation
[5] = GTN group, range over three trials
[6] = GTN groups, range over three trials

## O=[N+]([O-])OCC(CO[N+](=O)[O-])O[N+](=O)[O-] [glyceryl trinitrate, 1,2,3-propanetriol trinitrate]
[1]; GTN group
  Headache (Days) Average: GTN 5 Days
  Headache (Days) Median: GTN 4 Days
  Headache (Days) Total: 85 days
  Headache: percentage of patients: 53%
  No Side Effects: GTN 44%
  Other Noted Side-Effects: Increase Tinnitus: Tinnitus (3%)
[1]; Week 12 (p=0.02)
  Tenderness Outcomes: Achilles tenderness vs placebo: significant decreases; also recorded: significantly less; also recorded: Decreased Week
[1]; Week 12 (p=0.02) / 24 (p=0.03)
  Pain Outcomes: Achilles tendon pain with activity vs placebo: significant decrease; also recorded: Decreased
[1]; Week 12 (p=0.04)
  Pain Outcomes: night pain vs placebo: significant decrease; also recorded: Decreased
[1]; Week 24
  Functional Outcomes Measures: Hop Test vs placebo: Increased Hop
[1]; Week 24 (p=0.04), from baseline levels
  Force Outcomes: ORI-ASTS mean plantarflexion total work vs placebo: significant increase; also recorded: Increased Mean
[1]; application site, GTN group
  Other Noted Side-Effects: Rash: Rash 16%,
[1]; excellent result at 24 weeks, Chi square p=0.001
  number needed to treat (NNT): 3.4
[1]; p=0.001
  total amount of paracetamol required for headache treatment vs placebo: significant increases; also recorded: significant between-group differences
[1]; patients, all GTN group
  Discontinuations: Headache: Headache 1
  Discontinuations: Rash: Rash,
[1]; used for headache, GTN group
  Paracetamol Average: GTN 14 tablets
  Paracetamol Median: GTN 10 tablets
  Paracetamol Total: GTN 237 tablets
[1]; week 24 (p=0.005)
  pain scores after the 10 hop test vs placebo: significant decrease
[1]; [4]
  Improved Patient Outcomes: 29%
[1]; week 24, placebo 49%
  patients with excellent improvement (asymptomatic with activities of daily living), patient reported: 78%
[2]; GTN group
  Headache (Days) Average: GTN 6 Days
  Headache (Days) Median: GTN 4 Days
  Headache (Days) Total: GTN 127 Days
  Headache: percentage of patients: (76%)
  No Side Effects: GTN 30%
[2]; anteroinferior subacromial tenderness
  Tenderness Outcomes vs placebo: no significant differences
[2]; application site, GTN group
  Other Noted Side-Effects: Rash: Rash 8%
[2]; excellent result at 24 weeks, Chi square p=0.007
  number needed to treat (NNT): 4.5
[2]; human, in vivo
  reported rate of headache and average number of headaches experienced vs placebo: significant between-group differences
[2]; p=0.001
  number of days affected by headache vs placebo: significant increase
[2]; patients, all GTN group
  Discontinuations: Headache: Headache 2
[2]; used for headache, GTN group
  Paracetamol Average: GTN 7 tablets
  Paracetamol Median: GTN 2 tablets
  Paracetamol Total: GTN 138 tablets
[2]; [4]
  Improved Patient Outcomes: 22%
[2]; week 24, placebo 24%
  patients with excellent improvement, patient reported: 46%
[3]; GTN group
  headache as a side-effect: majority of patients
[3]; [5]
  average number of days of headache: 5 to 6 days
  headache, patients: 53-76%
  median number of days of headache: 3 to 4 days
[3]; GTN groups
  headaches that occurred within the first two weeks of the trial: 72%
[3]; [6]
  average paracetamol usage: 7-14 tablets
  median paracetamol usage: 2-10 tablets
  patients that experienced no side-effects: 30-44%
  total paracetamol usage: 138-237 tablets
[3]; GTN groups, range over three trials, placebo 7-12%
  patients experiencing application site rash: 8-21%
[3]; all three trials, timing varied
  tendon pain with activity vs placebo: significantly improved
[3]; at 24 weeks, all three clinical trials, p=0.001
  chance of being asymptomatic with activities of daily living vs placebo (Chi square): significantly increased
[3]; completion of the trials, range over three trials
  more patients than in the placebo group asymptomatic with activities of daily living (rated tendon excellent): 21-29%
[3]; equivalent to effect sizes at week 24
  changes in patient success rates (binomial effect size displays): 12-26%
[3]; human, in vivo
  other side-effects (increase in pre-existing tinnitus, ipsilateral axillary sweating, apprehension): severity and reversibility: None of these were severe, and all were reversible on discontinuation of the medication
  severity of rash vs placebo: greater severity of rash
[3]; in each clinical trial
  patients discontinued due to headache: 1-2 patients
[3]; in general
  severity of headaches vs placebo: more severe headaches
[3]; of clinical trial patients, all in GTN groups, headache or application site rash
  patients discontinued during the trials: 4-6%
[3]; three trials
  patients discontinued due to rash, total: five
[3]; type 2 diabetic, reversible on discontinuation
  patients discontinued for recurrent facial flushing: One
[3]; week 0 compared with week 24
  decrease of patient-rated pain scores, range over the trials: 64-67%
  increase of force outcome measures, range over the trials: 33-38%
[3]; week 0 compared with week 24, placebo […]%
  increase of force outcome measures, average: 37%
[3]; week 0 compared with week 24, placebo 30%
  decrease of patient-rated pain scores (with activity, at night, at rest), average: 65%
[3]; week 24, all three trials
  force outcome measures vs placebo: significant increases
[3]; week 24, range over three trials
  mean estimated effect sizes: 0.12-0.26
